Results: publication PMC8631675, “Neuroprotective effects of some epigenetic modifying drugs’ on Chlamydia pneumoniae-induced neuroinflammation: A novel model” (PLoS ONE, 2021)
Where two headings read alike, the source gives them in different places.

Tests used:
HMC3 microglia cells = experiment: Cell proliferation (cytotoxicity) analysis with xCELLigence, HMC3; format: cell-based, human
Experimental: (§1) Cell proliferation analysis was performed with xCELLigence Real-Time Cell Analysis System to assess TSA, RG108, givinostat, and rifampin concentrations for use in both models. Differentiated SH-SY5Y and HMC3 microglia cells were seeded at a 5x10^3 density per well and incubated 24 h until CI values reached a log phase. The system stopped at the end of 24 h, 100, 10 and 1 μM TSA, givinostat, RG108 and rifampin were applied on current media and the cell viability was tracked. […] Simultaneously, slope plots were drawn using the CI values at 24 and 48 hours, and the statistical significance of the values discovered by assuming the average CI values of the control wells to be 100% was calculated.

SH-SY5Y cells = experiment: Total ROS/Superoxide detection; format: cell-based, human; conditions: for Increase of total amount of ROS compared to the control group, with NAC: 30 minutes NAC 5 mM, treated (drugs 100 nM; LPS 100 ng/ml; CFS 1 μg/ml, with IFN-γ) prior to Aβ exposure
Experimental: The Total ROS/Superoxide Detection Kit (ENZ-51010, Enzo) was used according to the kit process for evaluating the protective effects of the treatment groups on SH-SY5Y cells seeded at a 2x10^4 density per well in 96-well plates and Aβ was applied. ROS inhibitor N-acetyl cysteine (NAC) was applied at 5 mM concentration to negative control groups 30 minutes before the experiment and after incubation, 100 μL of “ROS/Superoxide Detection Solution” was added to the wells in the kit. The same procedure was done without the application of ROS inhibitor. Fluorometric analysis of stained cells was analyzed with Cytation 3 Cell Imaging Multi-Mode Reader (BioTek) using 490/525 nm and 550/620 nm filter sets.

[1] = test system: differentiated SH-SY5Y cells; experiment: Cell viability against Aβ-induced neurotoxicity, xCELLigence; format: cell-based, human; conditions: 24 h pretreatment (drugs 100 nM; CFS 1 μg/ml + IFN-γ; LPS 100 ng/ml + IFN-γ), then 5 μM Aβ (1–42) aggregates 24 h
Experimental: Pathological deterioration in AD is mainly associated with overproduction of the Aβ peptide and the Aβ (1–42) variant is the toxic form that is more predominant in Alzheimer’s patients. In this study, a modified oligomeric Aβ (1–42) neurotoxicity analysis protocol was applied in order to elucidate the effects of treatment groups on SH-SY5Y cell viability in the presence of Aβ [56]. In order to model Aβ-induced neurotoxicity in vitro, an oligomeric form of the Aβ1–42 peptide was prepared by diluting with ice-cold Ham’s F12 Nutrient Mixture medium dissolved in PBS containing 0.02 M NaOH at a final concentration of 50 μM and kept in a 37°C incubator for 7 days to form peptide aggregates prior to the experiments. 5x10^3 SH-SY5Y cells were differentiated inside the xCELLigence instrument for 5 days and treated with 100 nM TSA, RG108, givinostat, rifampin; 100 ng/ml LPS+IFN-ɣ or 1 μg/ml CFS+IFN-ɣ for 24 h in order to evaluate neuroprotection. The co-culture was performed in the same way as the neuroinflammation model. Neurotoxicity was obtained instead of neuroinflammation by diluting to 5 μM with fresh medium and adding Aβ1–42 aggregates to the wells for 24 h in 100 μl of medium. Cell viability data was then monitored for 24 h and analyzed within the instrument.

[2] = test system: differentiated SH-SY5Y cells; experiment: Annexin V-PI staining of Aβ-induced cell death, flow cytometry; format: cell-based, human; conditions: pretreatment (drugs 100 nM; LPS 100 ng/ml + IFN-γ; CFS 1 μg/ml + IFN-γ) + 5 μM Aβ 24 h; for Necrotic effect (Q5-UL): control 1.6%; for Apoptotic effect (early apoptosis + late apoptosis): control 1.9%; for Percentage of living cells (Live): control 96.5%
Experimental: To determine neuronal apoptosis associated with Aβ exposure, 25x10^3 differentiated SH-SY5Y cells were seeded in 24-well plates and Aβ was applied. After 24 h, cells were trypsinized and staining was performed according to the CF 488A Annexin V and PI Apoptosis Kit (Biotium, USA, Cat. No: 30061) protocol. After washing the cells with 1xPBS, the working solution was prepared by diluting the PI with Annexin V binding buffer included in the kit. 5 μl Annexin V and 2 μl PI working solution were added to the centrifuge tubes and binded with 100 μl Annexin V binding buffer. After the samples were incubated for 30 minutes on ice and in the dark, 400 μl of Annexin V binding buffer was added to each tube and the samples were measured and analyzed in a BD Accuri™ C6 flow cytometry device.

motor neurons = test system: motor neurons; parameters: method as in PMID 23900692; conditions: inhibiting DNMT catalytic activity; cited from earlier work
[3] = test system: differentiated SH-SY5Y cells; experiment: Cell proliferation (cytotoxicity) analysis with xCELLigence, SH-SY5Y; format: cell-based, human
Experimental: as §1

mutated COS-7 cells = test system: mutated COS-7 cells; parameters: method as in PMID 27020329; conditions: mutated COS-7 cells expressing amyloid precursor protein; cited from earlier work
[4] = test system: low density lipoprotein receptor-related protein 1 (LRP-1) and P-glycoprotein (P-gp); parameters: method as in PMID 22504320; conditions: by upregulating LRP-1 and P-gp; cited from earlier work
TNF-α gene expression = experiment: RT-PCR TNF-α gene expression in HMC3 microglia cells; format: cell-based, human; conditions: 24 h
Experimental: (§2) LPS and/or proinflammatory cytokines like IFN-ɣ, have been used alone or in combination in most in vitro neuroinflammation models to study microglial activation. Therefore, the effects of lyophilized cell free supernatant (CFS)+IFN-ɣ combination, which was determined to increase IL-1β and CD218a cytokine levels most effectively, on IL-1β, TNF-α and IL-8 gene expressions were compared with LPS+IFN-ɣ combination in order to determine the activation concentration.
(§3) RNA isolations were performed in MagNA Pure Compact System (Roche, Germany) using MagNA Pure Compact RNA Isolation Kit® (Catalog No: 04802993001, Roche, Germany) after 24-h. The total RNA amounts of the samples were measured at 260 and 280 nm in the NanoDrop 2000® (Thermo Fisher, USA) spectrophotometer. cDNA was obtained using the Transcriptor High Fidelity cDNA Synthesis Kit® (Catalog no: 05091284001, Roche, Germany) following the kit protocol from […] RNA of each sample. After the cDNA samples were replicated by PCR method, the expression levels were determined with the LightCycler® 480 Real-Time PCR System (Roche, Germany) using the IL-1β, TNF-α and IL-8 primers (PRZ BioTech, Turkey). Actin beta (ACTB) was used as a housekeeping gene. Primer sequences and RT-PCR cycling conditions are shown in S1 and S2 Tables. Results were analyzed according to the changes in the amplification levels compared to the control group with the analysis software of the instrument.

CD11b = experiment: Active microglia marker CD11b in HMC3 cells by flow cytometry; format: cell-based, human; conditions: 24 hours, control 10.1%
Experimental: HMC3 microglia cells were seeded in 12-well plates at a density of 75x10^3 cells per well and treated with treatment groups for 24 h. Then, cells were detached and centrifuged with Cell Staining Buffer (BioLegend, USA, Cat. No: 420201) for 5 minutes and the supernatant was discarded. Blocking was performed with 5 μl Human TruStain Fcx (BioLegend, USA, Cat. No: 422302) Fc receptor blocker solution diluted in 100 μl Cell Staining Buffer for 10 minutes at room temperature to reduce non-specific binding. The blocker was removed by centrifugation and the cells were stained with 5 μl PE anti-mouse/human CD11b Antibody (BioLegend, USA, Cat. No: 101208) diluted 1:5 in 20 μl Cell Staining Buffer for 15 minutes on ice in the dark. Then, the cells were washed 2 times with 2 ml Cell Staining Buffer and analyzed within 500 μl buffer using the BD Accuri ™ C6 flow cytometer.

IL-8 gene expression = experiment: RT-PCR IL-8 gene expression in HMC3 microglia cells; format: cell-based, human; conditions: 24 h
Experimental: as §2, §3

SH-SY5Y cell = test system: SH-SY5Y cell; parameters: method as in PMID 31837307, PMID 32087283; conditions: LPS alone; cited from earlier work
IL-1β gene expression = experiment: RT-PCR IL-1β gene expression in HMC3 microglia cells; format: cell-based, human; conditions: 24 h
Experimental: as §2, §3

[5] = cells treated (drugs 100 nM; LPS 100 ng/ml; CFS 1 μg/ml, with IFN-γ) before exposure to Aβ, without NAC
[6] = HMC3, 10 ng/ml + 10 ng/ml IFN-ɣ
[7] = HMC3, 100 ng/ml + 10 ng/ml IFN-ɣ

Molecule	Reduction of HMC3 cell viability compared to the control group (HMC3 microglia cells; 10 μM, 24 hours) [%]	Reduction of HMC3 cell viability compared to the control group (HMC3 microglia cells; 10 μM, 48 hours) [%]	Reduction of HMC3 cell viability compared to the control group (HMC3 microglia cells; 100 μM, 24 hours) [%]	Reduction of HMC3 cell viability compared to the control group (HMC3 microglia cells; 100 μM, 48 hours) [%]	Increase of total amount of ROS compared to the control group, with NAC (SH-SY5Y cells) [%]	Decrease of total ROS amount according to the Aβ group (SH-SY5Y cells; [5]) [%]	CI values compared to the control group [1] [%]	Necrotic effect (Q5-UL) [2] [%]	Apoptotic effect (early apoptosis + late apoptosis) [2] [%]	Percentage of living cells (Live) [2] [%]	Reduction of differentiated SH-SY5Y cell viability ([3]; 1 μM, 24 hours) [%]	Reduction of differentiated SH-SY5Y cell viability ([3]; 1 μM, 48 hours) [%]	Reduction of differentiated SH-SY5Y cell viability ([3]; 10 μM, 24 hours) [%]	Reduction of differentiated SH-SY5Y cell viability ([3]; 10 μM, 48 hours) [%]	Reduction of differentiated SH-SY5Y cell viability ([3]; 100 μM, 24 hours) [%]	Reduction of differentiated SH-SY5Y cell viability ([3]; 100 μM, 48 hours) [%]	other results
O=C(O)C(Cc1c[nH]c2ccccc12)N1C(=O)c2ccccc2C1=O (stereo not drawn) [RG108]	3.12	8.33	43.26	57.56	4.29	52.61	120.7	6.6	4.3	89.1	21.98	15.47	43.73	33.89	64.03	53.43	IC50 (HMC3 microglia cells; from CI values at 24th hour, 1, 10 and 100 μM tested, read-out: IC50 Values 24h HMC3): > 400 µM; IC50 (HMC3 microglia cells; from CI values at 48th hour, 1, 10 and 100 μM tested, read-out: IC50 Values 48h HMC3): > 400 µM; Decrease of total amount of ROS compared to the control group (SH-SY5Y cells; cells treated with compounds (100 nM) before exposure to Aβ, without NAC): 9.03%; Effect on motor neurons (motor neurons): protect motor neurons from excessive DNA methylation and apoptosis; IC50 ([3]; from CI values at 24th hour, 1, 10 and 100 μM tested, read-out: IC50 Values 24h SH-SY5Y): 1.49 µM; IC50 ([3]; from CI values at 48th hour, 1, 10 and 100 μM tested, read-out: IC50 Values 48h SH-SY5Y): 9.6 µM
CO[C@H]1/C=C/O[C@@]2(C)Oc3c(C)c(O)c4c(O)c(c(/C=N/N5CCN(C)CC5)c(O)c4c3C2=O)NC(=O)/C(C)=C\C=C\[C@H](C)[C@H](O)[C@@H](C)[C@@H](O)[C@@H](C)[C@H](OC(C)=O)[C@@H]1C [Rifampin, rifampin]	12.72	17.79	15.74	28.72	0.25	43.14	120.7	8.1	5.8	86.2	30.28	17.16	46.98	25	97.24	98.61	IC50 (HMC3 microglia cells; Homo sapiens, HMC3, 24 h, from CI values at 24th hour, 1, 10 and 100 μM tested, read-out: IC50 Values 24h HMC3): 33.2 µM; IC50 (HMC3 microglia cells; Homo sapiens, HMC3, 48 h, from CI values at 48th hour, 1, 10 and 100 μM tested, read-out: IC50 Values 48h HMC3): 31 µM; Increase of total amount of ROS compared to the control group (SH-SY5Y cells; cells treated (drugs 100 nM; LPS 100 ng/ml; CFS 1 μg/ml, with IFN-γ) before exposure to Aβ, without NAC, not significant): 0.43%; Effect on Aβ, tau, and α-synuclein aggregation (mutated COS-7 cells): minimize Aβ, tau, and α-synuclein aggregation; Effect on Aβ clearance [4]: increasing Aβ clearance; IC50 ([3]; Homo sapiens, SH-SY5Y, 24 h, from CI values at 24th hour, 1, 10 and 100 μM tested, read-out: IC50 Values 24h SH-SY5Y): > 400 µM; IC50 ([3]; Homo sapiens, SH-SY5Y, 48 h, from CI values at 48th hour, 1, 10 and 100 μM tested, read-out: IC50 Values 48h SH-SY5Y): 64.4 µM
lipopolysaccharide [LPS]																	TNF-α expression level compared to the control group (TNF-α gene expression; [6]): 1.55 fold; TNF-α expression level compared to the control group (TNF-α gene expression; [7]): 1.41 fold; TNF-α expression level compared to the control group (TNF-α gene expression; HMC3, 1 μg/ml + 10 ng/ml IFN-ɣ): 0.82 fold; CD11b antibody levels (positive gate V-R) (CD11b; [7]): 42.4%; CD11b antibody levels (positive gate V-R) (CD11b; HMC3, 1 μg/ml + 10 ng/ml IFN-ɣ): 23%; IL-8 expression level compared to the control group (IL-8 gene expression; [6]): 3.07 fold; IL-8 expression level compared to the control group (IL-8 gene expression; [7]): 3.88 fold; IL-8 expression level compared to the control group (IL-8 gene expression; HMC3, 1 μg/ml + 10 ng/ml IFN-ɣ): 13.64 fold; Effect on SH-SY5Y cell viability (SH-SY5Y cell): no effect; IL-1β expression level compared to the control group (IL-1β gene expression; [6]): 1.64 fold; IL-1β expression level compared to the control group (IL-1β gene expression; [7]): 3.21 fold; IL-1β expression level compared to the control group (IL-1β gene expression; HMC3, 1 μg/ml + 10 ng/ml IFN-ɣ): 1.83 fold
